Results on 15 compounds are retold here after ChEMBL document CHEMBL5108059, “Discovery of 2-Methyl-2-(4-(2-methyl-8-(1H-pyrrolo[2,3-b]pyridin-6-yl)-1H-naphtho[1,2-d]imidazol-1-yl)phenyl)propanenitrile as a Novel PI3K/mTOR Inhibitor with Enhanced Antitumor Efficacy In Vitro and In Vivo” (J Med Chem, 2022).

Usually IC50 stands for the point on the concentration scale where inhibition reaches its midpoint.

Each structure is given as a SMILES string.

In one experiment the test system is HT-29. Briefly: Antiproliferative activity against human HT-29 cells with PIK3CA mutation assessed as inhibition of cell growth incubated for 48 to 72 hrs by MTT assay. It is filed as functional, cell-based.
The subject of experiment [1] is SW-620. Description: Antitumor activity against human SW620 cells xenografted in BALB/c nude mouse assessed as tumor growth inhibition at 30 mg/kg, IG administered daily for 30 days and measured every 2 days relative to control. It is filed as functional. Particulars: SW-620, po, 720 h, time 30 day, read-out: TGI.
Another experiment relates to NCI-H3122. Briefly: Antiproliferative activity against human NCI-H3122 cells assessed as inhibition of cell growth incubated for 48 to 72 hrs by MTT assay. The format is functional, cell-based. (In general: Tetrazolium assays rely on reduction of a dye to a coloured formazan, in cell work by metabolically active cells.)
Experiment [2] relates to SW-620. Briefly: Antiproliferative activity against human SW620 cells assessed as inhibition of cell growth incubated for 48 to 72 hrs by MTT assay. The format is functional, cell-based.
Experiment [3] deals with HeLa. Briefly: Antitumor activity against human HeLa cells xenografted in BALB/c nude mouse assessed as tumor growth inhibition at 30 mg/kg, IG administered daily for 30 days and measured every 2 days relative to control. The format is functional. To be noted: po, 720 h, time 30 day, read-out: TGI. In general terms: A xenograft is tissue or cells of one species grown in another, often human tumour cells in immunodeficient mice.

The subject of a further experiment is NCI-H446. Briefly: Antiproliferative activity against PTEN-null human NCI-H446 cells assessed as inhibition of cell growth incubated for 48 to 72 hrs by MTT assay. It is filed as functional, cell-based.
In a further experiment the test system is HCT-15. Description: Antiproliferative activity against human HCT-15 cells with PIK3CA mutation assessed as inhibition of cell growth incubated for 48 to 72 hrs by MTT assay. It is filed as functional, cell-based.
The test system of experiment [4] is HeLa. Briefly: Antiproliferative activity against human HeLa cells assessed as inhibition of cell growth incubated for 48 to 72 hrs by MTT assay. The format is functional, cell-based.
For experiment [5], the target named is Phosphatidylinositol 4,5-bisphosphate 3-kinase catalytic subunit alpha isoform (Homo sapiens, UniProt P42336). Briefly: Inhibition of PI3Kalpha (unknown origin) using PIP2 as substrate incubated for 1 hr in presence of ATP by Kinase Glo luminescence assay. (In general: Kinase-Glo measures the ATP left after a reaction by luminescence.)
Experiment [6] has as its target Serine/threonine-protein kinase mTOR (Homo sapiens, UniProt P42345). Description: Inhibition of N-terminal FLAG-tagged recombinant human mTOR (1362 to end residue) using ULight-4EBP1 peptide as substrate incubated for 30 mins in presence of ATP by Lance ultra assay.
In experiment [7] the target is T1, Phosphatidylinositol 4,5-bisphosphate 3-kinase catalytic subunit delta isoform (Homo sapiens, UniProt O00329).
T1 sequence (O00329 whole entry): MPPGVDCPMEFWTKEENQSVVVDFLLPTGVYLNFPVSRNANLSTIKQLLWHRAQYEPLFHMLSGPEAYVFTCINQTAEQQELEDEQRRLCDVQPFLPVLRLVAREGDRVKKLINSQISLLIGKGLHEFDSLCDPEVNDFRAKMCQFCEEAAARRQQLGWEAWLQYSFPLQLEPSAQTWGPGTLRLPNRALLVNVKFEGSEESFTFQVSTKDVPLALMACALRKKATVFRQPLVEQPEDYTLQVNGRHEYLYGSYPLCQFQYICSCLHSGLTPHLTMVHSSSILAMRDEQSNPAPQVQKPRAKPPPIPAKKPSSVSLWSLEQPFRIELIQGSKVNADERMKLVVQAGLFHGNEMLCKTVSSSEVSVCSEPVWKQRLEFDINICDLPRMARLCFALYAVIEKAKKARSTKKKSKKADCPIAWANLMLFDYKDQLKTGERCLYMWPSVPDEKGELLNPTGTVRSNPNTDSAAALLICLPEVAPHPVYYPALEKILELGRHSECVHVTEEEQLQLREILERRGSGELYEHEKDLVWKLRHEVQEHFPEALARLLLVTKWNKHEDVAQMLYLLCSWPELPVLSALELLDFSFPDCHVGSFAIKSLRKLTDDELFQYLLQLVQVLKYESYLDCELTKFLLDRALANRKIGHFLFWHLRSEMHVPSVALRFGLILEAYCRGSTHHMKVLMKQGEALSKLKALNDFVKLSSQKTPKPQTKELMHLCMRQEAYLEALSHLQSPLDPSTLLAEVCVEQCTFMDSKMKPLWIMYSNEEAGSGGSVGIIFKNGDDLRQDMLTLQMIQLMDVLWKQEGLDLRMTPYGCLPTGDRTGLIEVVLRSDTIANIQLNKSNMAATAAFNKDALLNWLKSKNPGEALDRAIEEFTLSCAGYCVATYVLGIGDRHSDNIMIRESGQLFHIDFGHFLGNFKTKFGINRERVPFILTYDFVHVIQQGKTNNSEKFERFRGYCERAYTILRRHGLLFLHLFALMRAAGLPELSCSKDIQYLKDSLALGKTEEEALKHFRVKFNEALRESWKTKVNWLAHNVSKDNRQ
Description: Inhibition of PI3Kdelta (unknown origin) using PIP2 as substrate incubated for 2 hrs in presence of ATP by Kinase Glo luminescence assay.

Chain of Phosphatidylinositol 4,5-bisphosphate 3-kinase catalytic subunit alpha isoform (P42336 whole entry, canonical isoform): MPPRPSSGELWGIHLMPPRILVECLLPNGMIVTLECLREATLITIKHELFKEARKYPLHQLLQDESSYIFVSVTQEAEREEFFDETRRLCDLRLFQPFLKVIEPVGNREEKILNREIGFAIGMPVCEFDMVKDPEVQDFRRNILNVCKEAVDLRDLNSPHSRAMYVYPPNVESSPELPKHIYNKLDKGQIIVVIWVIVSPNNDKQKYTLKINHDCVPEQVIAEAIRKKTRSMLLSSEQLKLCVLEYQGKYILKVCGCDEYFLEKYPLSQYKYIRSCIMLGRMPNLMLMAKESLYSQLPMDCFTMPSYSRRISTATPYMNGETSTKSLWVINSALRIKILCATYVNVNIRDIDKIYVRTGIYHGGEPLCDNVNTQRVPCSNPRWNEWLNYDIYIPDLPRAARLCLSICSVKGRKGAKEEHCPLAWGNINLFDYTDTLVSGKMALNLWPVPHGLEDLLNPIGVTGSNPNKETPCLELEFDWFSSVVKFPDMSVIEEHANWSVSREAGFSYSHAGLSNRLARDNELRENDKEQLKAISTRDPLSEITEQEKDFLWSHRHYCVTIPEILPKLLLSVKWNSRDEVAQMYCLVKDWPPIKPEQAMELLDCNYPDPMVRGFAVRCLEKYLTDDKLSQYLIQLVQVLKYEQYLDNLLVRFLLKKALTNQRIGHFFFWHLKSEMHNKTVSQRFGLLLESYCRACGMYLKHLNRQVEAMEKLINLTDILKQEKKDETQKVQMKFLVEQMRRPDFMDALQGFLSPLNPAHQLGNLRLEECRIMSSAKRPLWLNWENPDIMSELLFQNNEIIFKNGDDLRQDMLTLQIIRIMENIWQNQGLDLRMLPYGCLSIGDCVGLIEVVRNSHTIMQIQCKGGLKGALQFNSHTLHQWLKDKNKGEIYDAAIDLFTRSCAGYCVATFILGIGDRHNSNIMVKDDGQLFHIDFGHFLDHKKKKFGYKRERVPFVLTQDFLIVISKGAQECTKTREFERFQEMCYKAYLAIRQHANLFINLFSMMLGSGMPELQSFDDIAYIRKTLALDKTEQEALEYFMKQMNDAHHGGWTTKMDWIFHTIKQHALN

Take `Cn1c(=O)n(-c2ccc(C(C)(C)C#N)cc2)c2c3cc(-c4cnc5ccccc5c4)ccc3ncc21` [DACTOLISIB]: the IC50 came to 1.01 µM in the experiment with HT-29; 0.96 µM in the experiment on NCI-H3122; 0.87 µM in the experiment on SW-620 [2]; 0.87 µM in the experiment with NCI-H446; 0.91 µM in the experiment with HCT-15; 1.09 µM in the experiment on HeLa [4]. Further, the inhibition in vivo at 30 mg/kg in the experiment on SW-620 [1] came to 51.7%; in the experiment on HeLa [3], 53.3%.

Turning to `Cc1nc2cnc3ccc(-c4ccc(N)nc4)cc3c2n1-c1ccc(F)cc1`, the IC50 is 0.0513 µM in experiment [5]; 1.21 µM with HT-29; 4.75 µM in the experiment on NCI-H3122; 2.13 µM with SW-620 [2]; 3.61 µM with NCI-H446; 0.0938 µM in [6]. Further, the figures for the IC50 (in the experiment on HCT-15; with HeLa [4]; in experiment [7]) were 2.02 µM, 1.71 µM and 0.0407 µM, respectively.

Regarding `Cc1nc2cnc3ccc(-c4cnc5[nH]ccc5c4)cc3c2n1-c1ccccc1`, the IC50 in [5] was determined as 0.041 µM; in the experiment on HT-29, 2.31 µM; in the experiment with NCI-H3122, 5.61 µM; in the experiment on SW-620 [2], 2.91 µM; in the experiment on NCI-H446, 4.51 µM; in experiment [6], 0.0739 µM. For the same compound, the IC50 in the experiment on HCT-15 worked out at 1.94 µM; with HeLa [4], 3.64 µM; in experiment [7], 0.0323 µM.

`Cc1nc2cnc3ccc(-c4cnc5[nH]ccc5c4)cc3c2n1-c1ccc(C#N)cc1`: the IC50 is 0.0625 µM in experiment [5]; 1.32 µM in the experiment on HT-29; 7.73 µM with NCI-H3122; 3.94 µM in the experiment with SW-620 [2]; 9.71 µM with NCI-H446; 0.123 µM in [6]. Moreover, the IC50 with HCT-15 came out at 1.41 µM; with HeLa [4] it was 5.68 µM; in experiment [7], 0.0964 µM.

On to `COC(=O)c1ccc(-c2ccc3ncc4nc(C)n(-c5ccc(F)cc5)c4c3c2)cc1`, for which the IC50 was 0.251 µM in experiment [5]; 18.7 µM in the experiment on HT-29; more than 20 µM in the experiment with NCI-H3122; more than 20 µM with SW-620 [2]; more than 20 µM with NCI-H446; 0.206 µM in [6]. Moreover, the IC50 is more than 20 µM in the experiment on HCT-15, 19.8 µM in the experiment with HeLa [4] and 0.336 µM in experiment [7].

Turning to `Cc1nc2cnc3ccc(-c4cnc5[nH]ccc5c4)cc3c2n1-c1ccc(C(C)(C)C#N)cc1`, the IC50 in [5] was found to be 0.0125 µM; in the experiment on HT-29, 0.31 µM; in the experiment with NCI-H3122, 0.37 µM; in the experiment with SW-620 [2], 0.23 µM; in the experiment with NCI-H446, 1.08 µM; in [6], 0.0291 µM. For the same compound, the IC50 is 0.29 µM with HCT-15, 0.19 µM with HeLa [4] and 0.0217 µM in [7].

In the case of `Cc1nc2cnc3ccc(-c4ccc5[nH]ccc5c4)cc3c2n1-c1ccc(F)cc1`, the IC50 in experiment [5] came out at 0.0298 µM; in the experiment with HT-29, 2.72 µM; in the experiment on NCI-H3122, 2.31 µM; in the experiment on SW-620 [2], 2.53 µM; in the experiment with NCI-H446 it was 3.08 µM; in [6], 0.0493 µM. For the same compound, the IC50 came to 1.92 µM in the experiment with HCT-15, 1.79 µM with HeLa [4] and 0.0573 µM in experiment [7].

`Cc1nc2cnc3ccc(-c4cnc5[nH]ccc5c4)cc3c2n1-c1ccc(F)cc1`: the IC50 in experiment [5] came to 0.0215 µM; in the experiment with HT-29, 1.25 µM; in the experiment on NCI-H3122, 2.05 µM; with SW-620 [2], 1.28 µM; with NCI-H446, 1.65 µM; in experiment [6] it was 0.0387 µM. The IC50 was found to be 1.13 µM in the experiment with HCT-15, 1.82 µM with HeLa [4] and 0.0289 µM in [7].

Regarding `Cc1nc2cnc3ccc(-c4ccc5ccccc5c4)cc3c2n1-c1ccc(F)cc1`, the IC50 in [5] worked out at 0.148 µM; with HT-29, 3.14 µM; in the experiment on NCI-H3122, 8.95 µM; in the experiment on SW-620 [2], 13.7 µM; in the experiment on NCI-H446, 12.2 µM; in experiment [6], 0.19 µM. The IC50 amounted to 9.75 µM with HCT-15, 16.8 µM with HeLa [4] and 0.202 µM in experiment [7].

For the compound `Cc1nc2cnc3ccc(-c4cnc5[nH]ccc5c4)cc3c2n1[C@@H](C)c1ccc(F)cc1`, the IC50 in experiment [5] amounted to 0.14 µM; in the experiment with HT-29, 1.71 µM; with NCI-H3122, 1.97 µM; in the experiment with SW-620 [2] it was 1.61 µM; in the experiment on NCI-H446 it was 3.02 µM; in experiment [6] it was 0.0874 µM. The IC50 amounted to 1.04 µM with HCT-15, 3.51 µM in the experiment on HeLa [4] and 0.203 µM in experiment [7].

`Cc1nc2cnc3ccc(-c4cnc5[nH]ccc5c4)cc3c2n1-c1ccc(N2CCOCC2)cc1`: the IC50 in [5] was determined as 0.0693 µM; in the experiment with HT-29 it was 1.02 µM; in the experiment on NCI-H3122, 1.08 µM; in the experiment on SW-620 [2], 0.93 µM; with NCI-H446, 1.47 µM; in [6] it was 0.114 µM. Besides, the 50% inhibitory concentration (IC50) was determined as 1.36 µM in the experiment with HCT-15, 0.94 µM in the experiment on HeLa [4] and 0.156 µM in [7].

As to `Cc1nc2cnc3ccc(-c4cnc5[nH]ccc5c4)cc3c2n1-c1ccc(C(F)(F)F)nc1`, the IC50 was found to be 0.104 µM in experiment [5]; 1.53 µM with HT-29; 2.36 µM in the experiment with NCI-H3122; 1.83 µM with SW-620 [2]; 3.21 µM in the experiment with NCI-H446; 0.159 µM in experiment [6]. Further, the IC50 in the experiment with HCT-15 is 2.85 µM; with HeLa [4] it was 3.71 µM; in experiment [7] it was 0.0931 µM.

As to `Cc1nc2cnc3ccc(-c4ccc(N)cc4)cc3c2n1-c1ccc(F)cc1`, the IC50 in experiment [5] turned out to be 0.0681 µM; with HT-29 it was 1.98 µM; in the experiment on NCI-H3122, 8.75 µM; with SW-620 [2], 2.15 µM; with NCI-H446, 6.97 µM; in experiment [6], 0.121 µM. The IC50 worked out at 2.32 µM with HCT-15, 3.13 µM in the experiment with HeLa [4] and 0.0903 µM in experiment [7].

On to `Cc1nc2cnc3ccc(-c4cnc5ccccc5c4)cc3c2n1-c1ccc(F)cc1`, for which the IC50 amounted to 0.0331 µM in experiment [5]; 3.25 µM with HT-29; 5.08 µM in the experiment with NCI-H3122; 2.79 µM in the experiment with SW-620 [2]; 7.13 µM with NCI-H446; 0.0323 µM in experiment [6]. For the same compound, the figures for the IC50 (in the experiment with HCT-15; in the experiment with HeLa [4]; in experiment [7]) were 3.09 µM, 4.31 µM and 0.0405 µM, respectively.

As to `Cc1nc2cnc3cc(F)c(-c4cnc5[nH]ccc5c4)cc3c2n1-c1ccc(C(C)(C)C#N)cc1`, the IC50 in experiment [5] came to 0.0193 µM; in the experiment with HT-29, 0.91 µM; in the experiment with NCI-H3122, 0.67 µM; in the experiment on SW-620 [2], 1.37 µM; in the experiment with NCI-H446, 1.65 µM; in [6], 0.0452 µM. The IC50 in the experiment on HCT-15 is 0.83 µM; in the experiment on HeLa [4] it was 0.51 µM; in experiment [7] it was 0.0286 µM.
